Like-named read-outs stand apart in the source and are kept apart here.
Assays:
HCT-15 = assay: JFCR-39 cytotoxicity screen; format: cell-based
DU-145 [1] = assay: NCI-60 cytotoxicity screen; format: cell-based
PC-3 = assay: JFCR-39 cytotoxicity screen; format: cell-based
[2] = system: normal cardiac myoblast H9c2 cells; conditions: rat
Protocol: Briefly, 96 well microtiter plates were inoculated with the specified human cancer cell lines in RPMI 1640 medium containing 5% fetal bovine serum and 2 mM L-glutamine at the specified plating densities. The microtiter plates were incubated at 37°C, 5% CO2, and 100% relative humidity for 24 h. The test compounds were solubilized in DMSO at 400-fold the desired final maximum test concentration, diluted with complete medium containing gentamicin and added to the wells of the microtiter plates to achieve the final desired compound concentration, then incubated for an additional 48 h at the same incubation conditions. The media were removed, the cells were fixed then stained with sulforhodamine B and the unbound dye was removed by washing with acetic acid. The bound dye was resolubilized with trizma base and the absorbance at 515 nm was measured. Cells were stained with the WST-1 cell proliferation reagent instead of sulforhodamine B in some experiments and absorbance were measured at 440 nm. The three dose response parameters GI50, TGI and LC50 were calculated for each experimental compound as follows [48]: For values where Ti ≥ Tz the formula is [ (Ti-Tz) / (C-Tz)] x 100 For values where Ti < Tz the formula is [ (Ti-Tz) / Tz] x 100 Where Ti is the absorbance of the solubilized Sulforhodamine B (SRB) (representing the number of cells) of the five different concentrations of the compound used in the test, Tz is the absorbance of the SRB at time zero, and C is the absorbance of the SRB of the control growth.

U251 = assay: NCI-60 cytotoxicity screen; format: cell-based
BT-549 = assay: NCI-60 cytotoxicity screen; format: cell-based
SF-539 [3] = assay: NCI-60 cytotoxicity screen; format: cell-based
SNB-19 = assay: NCI-60 cytotoxicity screen; format: cell-based
OVCAR-5 [4] = assay: JFCR-39 cytotoxicity screen; format: cell-based
TK-10 = assay: NCI-60 cytotoxicity screen; format: cell-based
MALME-3M = assay: NCI-60 cytotoxicity screen; format: cell-based
MCF-7 = assay: JFCR-39 cytotoxicity screen; format: cell-based
OVCAR-5 [5] = assay: NCI-60 cytotoxicity screen; format: cell-based
MKN74 = assay: JFCR-39 cytotoxicity screen; format: cell-based
SK-MEL-2 = assay: NCI-60 cytotoxicity screen; format: cell-based
RXF-631L = assay: JFCR-39 cytotoxicity screen; format: cell-based
IGROV1 = assay: NCI-60 cytotoxicity screen; format: cell-based
[6] = system: NF-κB p65 subunit in OVCAR-3 cells; assay: Western blotting of nuclear and cytosolic fractions; format: cell-based, human; conditions: OVCAR-3 nuclear fraction
Protocol: Treated cells were fractionated into nuclear and cytosolic fractions using the Nuclear/Cytosol fractionation kit (BioVision), separated by electrophoresis in SDS-PAGE gels and transferred to Amersham Hybond-P PVDF Membranes. Membranes were probed with either anti-NF-κB p65 rabbit monoclonal primary antibody [E379] Abcam # ab32536, anti-TATA binding protein (TBP) mouse antibody (1TBP18), or anti-beta Tubulin rabbit antibody [NB600-936]. After washing, membranes were incubated with either goat anti-rabbit IgG H&L (HRP) (ab6721), or rabbit anti-mouse IgG H&L (HRP) (ab6728) secondary antibodies. Membranes were developed using the Immobilon Western chemiluminescent HRP substrate kit. Protein bands were normalized to either the beta Tubulin or TBP bands and quantified using ImageJ software.

BSY-1 = assay: JFCR-39 cytotoxicity screen; format: cell-based
ACHN = assay: NCI-60 cytotoxicity screen; format: cell-based
NCI-H226 = assay: JFCR-39 cytotoxicity screen; format: cell-based
SF-539 [7] = assay: JFCR-39 cytotoxicity screen; format: cell-based
HL-60(TB) = assay: NCI-60 cytotoxicity screen; format: cell-based
MKN7 = assay: JFCR-39 cytotoxicity screen; format: cell-based
RXF 393 = assay: NCI-60 cytotoxicity screen; format: cell-based
DU-145 [8] = assay: JFCR-39 cytotoxicity screen; format: cell-based
KM-12 = assay: JFCR-39 cytotoxicity screen; format: cell-based
K-562 = assay: NCI-60 cytotoxicity screen; format: cell-based; conditions: Homo sapiens, K562, Fig 7, read-out: mean log10 of the GI50 values (converted)
[9] = Homo sapiens, read-out: LC50 (the source's name)
[10] = Homo sapiens, Fig 7, read-out: mean log10 of the GI50 values (converted)
[11] = Homo sapiens, five-dose, read-out: GI50
[12] = Homo sapiens, five-dose, read-out: LC50 (the source's name)

Q: For `O=C1c2ccccc2C(=O)c2c1cc(Cl)c1nsnc21` [NSC757963], which TGI (HCT-15) is on record?
A: 3.9 µM

Q: And the GI50 (HCT-15; Homo sapiens)?
A: 1.9 µM

Q: What about the CC50 (HCT-15; [9]) of the same molecule?
A: 7.9 µM

Q: What about the GI50 (DU-145 [1]; [10]) of the same molecule?
A: 14.1 µM

Q: And the GI50 (DU-145 [1]; [11])?
A: 14.2 µM

Q: What about the CC50 (DU-145 [1]; [12]) of the same molecule?
A: 52.2 µM

Q: What about the TGI (DU-145 [1]; five-dose) of the same molecule?
A: 27.2 µM

Q: What about the TGI (PC-3) of the same molecule?
A: 3.2 µM

Q: And the GI50 (PC-3; Homo sapiens)?
A: 1.6 µM

Q: What about the CC50 (PC-3; [9]) of the same molecule?
A: 6.5 µM

Q: And the “cytotoxicity towards normal cardiac myoblast H9c2 cells” value [2]?
A: significantly less cytotoxic effects on H9c2 cells at higher doses than doxorubicin

Q: What about the GI50 (U251; Homo sapiens, U-251, Fig 7, read-out: mean log10 of the GI50 values (converted)) of the same molecule?
A: 2.34 µM

Q: And the GI50 (U251; Homo sapiens, U-251, five-dose, read-out: GI50)?
A: 3.29 µM

Q: What about the CC50 (U251; Homo sapiens, U-251, five-dose, read-out: LC50 (the source's name)) of the same molecule?
A: 32.7 µM

Q: What about the TGI (U251; five-dose) of the same molecule?
A: 10.4 µM

Q: What about the GI50 (BT-549; [10]) of the same molecule?
A: 15.8 µM

Q: And the GI50 (BT-549; [11])?
A: 18.1 µM

Q: And the CC50 (BT-549; [12])?
A: 58.9 µM

Q: And the TGI (BT-549; five-dose)?
A: 32.7 µM

Q: And the GI50 (SF-539 [3]; [10])?
A: 9.12 µM

Q: What about the GI50 (SF-539 [3]; [11]) of the same molecule?
A: 8.23 µM

Q: What about the CC50 (SF-539 [3]; [12]) of the same molecule?
A: 50.8 µM

Q: And the TGI (SF-539 [3]; five-dose)?
A: 21.6 µM

Q: What about the GI50 (SNB-19; [10]) of the same molecule?
A: 9.55 µM

Q: And the GI50 (SNB-19; [11])?
A: 13.9 µM

Q: What about the CC50 (SNB-19; [12]) of the same molecule?
A: 58.9 µM

Q: What about the TGI (SNB-19; five-dose) of the same molecule?
A: 28.6 µM

Q: And the TGI (OVCAR-5 [4])?
A: 3.0 µM

Q: And the GI50 (OVCAR-5 [4]; Homo sapiens)?
A: 1.6 µM

Q: What about the CC50 (OVCAR-5 [4]; [9]) of the same molecule?
A: 5.5 µM

Q: And the GI50 (TK-10; [10])?
A: 22.9 µM

Q: And the GI50 (TK-10; [11])?
A: 24.1 µM

Q: What about the CC50 (TK-10; [12]) of the same molecule?
A: 64.1 µM

Q: And the TGI (TK-10; five-dose)?
A: 39.3 µM

Q: What about the GI50 (MALME-3M; [10]) of the same molecule?
A: 12.6 µM

Q: What about the GI50 (MALME-3M; [11]) of the same molecule?
A: 15.9 µM

Q: What about the CC50 (MALME-3M; [12]) of the same molecule?
A: 59.1 µM

Q: And the TGI (MALME-3M; five-dose)?
A: 30.7 µM

Q: What about the TGI (MCF-7) of the same molecule?
A: 3.9 µM

Q: And the GI50 (MCF-7; Homo sapiens, MCF7)?
A: 1.8 µM

Q: And the CC50 (MCF-7; Homo sapiens, MCF7, read-out: LC50 (the source's name))?
A: 8 µM

Q: What about the GI50 (OVCAR-5 [5]; [10]) of the same molecule?
A: 17.4 µM

Q: What about the GI50 (OVCAR-5 [5]; [11]) of the same molecule?
A: 17.6 µM

Q: And the CC50 (OVCAR-5 [5]; [12])?
A: 56.8 µM

Q: What about the TGI (OVCAR-5 [5]; five-dose) of the same molecule?
A: 31.6 µM

Q: And the TGI (MKN74)?
A: 4.2 µM

Q: What about the GI50 (MKN74; Homo sapiens, MKN-74) of the same molecule?
A: 2.1 µM

Q: What about the CC50 (MKN74; Homo sapiens, MKN-74, read-out: LC50 (the source's name)) of the same molecule?
A: 8.4 µM

Q: What about the GI50 (SK-MEL-2; [10]) of the same molecule?
A: 2.09 µM

Q: What about the GI50 (SK-MEL-2; [11]) of the same molecule?
A: 2.21 µM

Q: And the CC50 (SK-MEL-2; [12])?
A: 37.7 µM

Q: And the TGI (SK-MEL-2; five-dose)?
A: 5.77 µM

Q: And the TGI (RXF-631L)?
A: 3.1 µM

Q: What about the GI50 (RXF-631L; Homo sapiens) of the same molecule?
A: 1.7 µM

Q: What about the CC50 (RXF-631L; [9]) of the same molecule?
A: 5.9 µM

Q: What about the GI50 (IGROV1; Homo sapiens, IGROV-1, Fig 7, read-out: mean log10 of the GI50 values (converted)) of the same molecule?
A: 2.51 µM

Q: And the GI50 (IGROV1; Homo sapiens, IGROV-1, five-dose, read-out: GI50)?
A: 3.3 µM

Q: What about the CC50 (IGROV1; Homo sapiens, IGROV-1, five-dose, read-out: LC50 (the source's name)) of the same molecule?
A: 45.7 µM

Q: And the TGI (IGROV1; five-dose)?
A: 15.6 µM

Q: And the “dose of almost complete inhibition of nuclear NF-κB p65 expression” value [6]?
A: 2.4 µM

Q: And the TGI (BSY-1)?
A: 3.2 µM

Q: And the GI50 (BSY-1; Homo sapiens)?
A: 1.7 µM

Q: And the CC50 (BSY-1; [9])?
A: 6 µM

Q: And the GI50 (ACHN; [10])?
A: 2 µM

Q: What about the GI50 (ACHN; [11]) of the same molecule?
A: 2 µM

Q: What about the CC50 (ACHN; [12]) of the same molecule?
A: 7.74 µM

Q: What about the TGI (ACHN; five-dose) of the same molecule?
A: 3.93 µM

Q: And the TGI (NCI-H226)?
A: 17.0 µM

Q: And the GI50 (NCI-H226; Homo sapiens)?
A: 4.2 µM

Q: And the CC50 (NCI-H226; [9])?
A: 51 µM

Q: And the TGI (SF-539 [7])?
A: 3.4 µM

Q: And the GI50 (SF-539 [7]; Homo sapiens)?
A: 1.9 µM

Q: And the CC50 (SF-539 [7]; [9])?
A: 6.4 µM

Q: What about the GI50 (HL-60(TB); [10]) of the same molecule?
A: 1.05 µM

Q: And the GI50 (HL-60(TB); [11])?
A: 0.42 µM

Q: What about the CC50 (HL-60(TB); [12]) of the same molecule?
A: > 100 µM

Q: And the TGI (HL-60(TB); five-dose)?
A: 2.22 µM

Q: And the TGI (MKN7)?
A: 3.6 µM

Q: What about the GI50 (MKN7; Homo sapiens, MKN-7) of the same molecule?
A: 1.7 µM

Q: What about the CC50 (MKN7; Homo sapiens, MKN-7, read-out: LC50 (the source's name)) of the same molecule?
A: 7.4 µM

Q: And the GI50 (RXF 393; Homo sapiens, RXF393, Fig 7, read-out: mean log10 of the GI50 values (converted))?
A: 1.86 µM

Q: And the GI50 (RXF 393; [11])?
A: 2.17 µM

Q: And the CC50 (RXF 393; [12])?
A: 27.1 µM

Q: What about the TGI (RXF 393; five-dose) of the same molecule?
A: 7.21 µM

Q: And the TGI (DU-145 [8])?
A: 6.3 µM

Q: What about the GI50 (DU-145 [8]; Homo sapiens) of the same molecule?
A: 2.5 µM

Q: What about the CC50 (DU-145 [8]; [9]) of the same molecule?
A: 23 µM

Q: What about the TGI (KM-12) of the same molecule?
A: 8.4 µM

Q: What about the GI50 (KM-12; Homo sapiens, KM12) of the same molecule?
A: 3 µM

Q: What about the CC50 (KM-12; Homo sapiens, KM12, read-out: LC50 (the source's name)) of the same molecule?
A: 36 µM

Q: And the GI50 (K-562)?
A: 0.759 µM

— paper PMC4839570, “Novel Anthra[1,2-c][1,2,5]Thiadiazole-6,11-Diones as Promising Anticancer Lead Compounds: Biological Evaluation, Characterization & Molecular Targets Determination” (PLoS ONE, 2016)
